According to patent US20240067673A1, “MODIFIED NUCLEOSIDE OR NUCLEOTIDE” (BIG SHENZHEN, priority 2020, published 2024):

Tested on: DNA nanospheres prepared by using E. coli sequencing library
Experiment: Evaluation of blocking effect (incorporation and cleavage efficiency) on MGISEQ2000 sequencer
Assay type: biochemical
Settings: for Cleavage efficiency (EC): ratio of Cleavage efficiency values for testing nucleotide and comparative nucleotide, thpp reagent, 65° C. 1 min, dTTP analogue; for Incorporation efficiency (EI): ratio of Incorporation efficiency values for testing nucleotide and comparative nucleotide (standard cold dNTP), dTTP analogue as cold dNTP
Protocol: 1. Evaluation of Blocking Effect
For each test, only one of the nucleotide analogues cold dNTP of the invention (dTTP, dATP, dCTP, and dGTP) was used. For ease of presentation, only testing results for dTTP were provided in the following table 1 for each kind of 3′-OH modification.
Sequencing was conducted according to the operation protocol of MGISEQ2000 sequencer, using the above nucleotide substrates and MGISEQ-2000RS high-throughput sequencing kit (FCL SE50).
(1) Preparing DNA nanospheres by using E. coli sequencing library;
(2) Loading DNA nanospheres onto the MGISEQ2000 sequencing chip;
(3) Amounting the loaded sequencing chip onto the MGISEQ2000 sequencer and set the sequencing process;
(4) Performing Test Round 1: incorporating standard hot dNTP, taking photos for recording signal value, and then cleaving the blocking group with thpp reagent, 65° C. 1 min.
(5) Performing Test Round 2: incorporating standard cold dNTP, then incorporating standard hot dNTP, taking photos for recording signal value, and then cleaving blocking group with thpp reagent, 65° C. 1 min.
(6) Performing Test Round 3: incorporating standard hot dNTP, taking photos for recording signal value, and then cleaving blocking group with thpp reagent, 65° C. 1 min.
(7) Performing Test Round 4: incorporating nucleotide analogues cold dNTP of the invention (only one kind of cold dNTP incorporated for each test), then incorporating standard hot dNTP, taking photos for recording signal value, and then cleaving blocking group with thpp reagent, 65° C. 1 min.
(8) Performing Test Round 5: incorporating standard hot dNTP, taking photos for recording signal value.
(9) Evaluating Incorporation efficiency and Cleavage efficiency.
Equation for Calculating Incorporation Efficiency: […]
wherein: • EI (Incorporation efficiency) is the ratio of Incorporation efficiency values for testing nucleotide and comparative nucleotide; • C1 is signal value of Test Round 1; • C2 is signal value of Test Round 2; • C3 is signal value of Test Round 3; • C4 is signal value of Test Round 4;
Equation for Calculating Cleavage Efficiency: […]
wherein: • Ec (Cleavage efficiency) is the ratio of Cleavage efficiency values for testing nucleotide and comparative nucleotide; • EI is the ratio of Incorporation efficiency values for testing nucleotide and comparative nucleotide; • C3 is signal value of Test Round 3; • C5 is signal value of Test Round 5; • CGT is the signals of base C, base G and base T in Test Round 3.

SMILES | Cleavage efficiency (EC) | Incorporation efficiency (EI)
Cc1cn([C@H]2CC(OC(=O)c3ccccc3CCN=[N+]=[N-])[C@@H](COP(=O)(O)OP(=O)(O)OP(=O)(O)O)O2)c(=O)[nH]c1=O (stereo partly shown) | Incorporation efficiency (EI) 100% Cleavage efficiency (EC) 100% | Incorporation efficiency (EI) 100% Cleavage efficiency (EC) 100%
COc1ccc(C(=O)OC2C[C@H](n3cc(C)c(=O)[nH]c3=O)O[C@@H]2COP(=O)(O)OP(=O)(O)OP(=O)(O)O)c(C(C)N=[N+]=[N-])c1 (stereo partly shown) | 98% | 101%
Cc1cn([C@H]2CC(OC(=O)Cc3ccccc3CN=[N+]=[N-])[C@@H](COP(=O)(O)OP(=O)(O)OP(=O)(O)O)O2)c(=O)[nH]c1=O (stereo partly shown) | 89% | 95%
CSSC(C)c1ccccc1C(=O)OC1C[C@H](n2cc(C)c(=O)[nH]c2=O)O[C@@H]1COP(=O)(O)OP(=O)(O)OP(=O)(O)O (stereo partly shown) | 111% | 100%
Cc1cn([C@H]2CC(OC(=O)CCCN=[N+]=[N-])[C@@H](COP(=O)(O)OP(=O)(O)OP(=O)(O)O)O2)c(=O)[nH]c1=O (stereo partly shown) | 36% | 95%
Cc1cn([C@H]2CC(OC(=O)c3ccccc3CN=[N+]=[N-])[C@@H](COP(=O)(O)OP(=O)(O)OP(=O)(O)O)O2)c(=O)[nH]c1=O (stereo partly shown) | 91% | 98%
Cc1cn([C@H]2CC(OC(=O)Cc3ccccc3C(C)N=[N+]=[N-])[C@@H](COP(=O)(O)OP(=O)(O)OP(=O)(O)O)O2)c(=O)[nH]c1=O (stereo partly shown) | 91% | 98%
COc1ccc(C(=O)OC2C[C@H](n3ccc(N)nc3=O)O[C@@H]2COP(=O)(O)OP(=O)(O)OP(=O)(O)O)c(C(C)SSC)c1 (stereo partly shown) | 101% | 104%
CSSC(C)c1cc(NC(C)=O)ccc1C(=O)OC1C[C@H](n2cc(C)c(=O)[nH]c2=O)O[C@@H]1COP(=O)(O)OP(=O)(O)OP(=O)(O)O (stereo partly shown) | 98% | 100%
Cc1cn([C@H]2CC(OC(=O)c3ccccc3C(C)SSCC(C)C)[C@@H](COP(=O)(O)OP(=O)(O)OP(=O)(O)O)O2)c(=O)[nH]c1=O (stereo partly shown) | 98% | 90%
Cc1cn([C@H]2CC(OC(=O)c3ccc([N+](=O)[O-])cc3CN=[N+]=[N-])[C@@H](COP(=O)(O)OP(=O)(O)OP(=O)(O)O)O2)c(=O)[nH]c1=O (stereo partly shown) | 112% | 101%
Cc1cn([C@H]2CC(OC(=O)c3occc3CN=[N+]=[N-])[C@@H](COP(=O)(O)OP(=O)(O)OP(=O)(O)O)O2)c(=O)[nH]c1=O (stereo partly shown) | 5% | 101%
Cc1cn([C@H]2CC(OC(=O)c3cccnc3C(C)(C)N=[N+]=[N-])[C@@H](COP(=O)(O)OP(=O)(O)OP(=O)(O)O)O2)c(=O)[nH]c1=O (stereo partly shown) | 110% | 95%
Cc1cn([C@H]2CC(OC(=O)c3ccccc3C(C)N=[N+]=[N-])[C@@H](COP(=O)(O)OP(=O)(O)OP(=O)(O)O)O2)c(=O)[nH]c1=O (stereo partly shown) | 105% | 101%
Cc1cn([C@H]2CC(OC(=O)c3ccccc3C(C)SSC(C)C)[C@@H](COP(=O)(O)OP(=O)(O)OP(=O)(O)O)O2)c(=O)[nH]c1=O (stereo partly shown) | 103% | 95%
CCSSC(C)c1ccccc1C(=O)OC1C[C@H](n2cc(C)c(=O)[nH]c2=O)O[C@@H]1COP(=O)(O)OP(=O)(O)OP(=O)(O)O (stereo partly shown) | 110% | 100%
Cc1cn([C@H]2CC(OC(=O)c3cccnc3C(C)N=[N+]=[N-])[C@@H](COP(=O)(O)OP(=O)(O)OP(=O)(O)O)O2)c(=O)[nH]c1=O (stereo partly shown) | 115% | 100%
